Test results: PMC3567212 (Biochemistry, 2012)
Residue numbers refer to the chain shown, from its start.

Tests used:
[1] = biological target: T1, Rhizobium etli pyruvate carboxylase (RePC) (Rhizobium etli, UniProt Q2K340, R427K); test: coupled spectrophotometric assay; type: biochemical
T1 sequence (Q2K340 1-1154 R427K): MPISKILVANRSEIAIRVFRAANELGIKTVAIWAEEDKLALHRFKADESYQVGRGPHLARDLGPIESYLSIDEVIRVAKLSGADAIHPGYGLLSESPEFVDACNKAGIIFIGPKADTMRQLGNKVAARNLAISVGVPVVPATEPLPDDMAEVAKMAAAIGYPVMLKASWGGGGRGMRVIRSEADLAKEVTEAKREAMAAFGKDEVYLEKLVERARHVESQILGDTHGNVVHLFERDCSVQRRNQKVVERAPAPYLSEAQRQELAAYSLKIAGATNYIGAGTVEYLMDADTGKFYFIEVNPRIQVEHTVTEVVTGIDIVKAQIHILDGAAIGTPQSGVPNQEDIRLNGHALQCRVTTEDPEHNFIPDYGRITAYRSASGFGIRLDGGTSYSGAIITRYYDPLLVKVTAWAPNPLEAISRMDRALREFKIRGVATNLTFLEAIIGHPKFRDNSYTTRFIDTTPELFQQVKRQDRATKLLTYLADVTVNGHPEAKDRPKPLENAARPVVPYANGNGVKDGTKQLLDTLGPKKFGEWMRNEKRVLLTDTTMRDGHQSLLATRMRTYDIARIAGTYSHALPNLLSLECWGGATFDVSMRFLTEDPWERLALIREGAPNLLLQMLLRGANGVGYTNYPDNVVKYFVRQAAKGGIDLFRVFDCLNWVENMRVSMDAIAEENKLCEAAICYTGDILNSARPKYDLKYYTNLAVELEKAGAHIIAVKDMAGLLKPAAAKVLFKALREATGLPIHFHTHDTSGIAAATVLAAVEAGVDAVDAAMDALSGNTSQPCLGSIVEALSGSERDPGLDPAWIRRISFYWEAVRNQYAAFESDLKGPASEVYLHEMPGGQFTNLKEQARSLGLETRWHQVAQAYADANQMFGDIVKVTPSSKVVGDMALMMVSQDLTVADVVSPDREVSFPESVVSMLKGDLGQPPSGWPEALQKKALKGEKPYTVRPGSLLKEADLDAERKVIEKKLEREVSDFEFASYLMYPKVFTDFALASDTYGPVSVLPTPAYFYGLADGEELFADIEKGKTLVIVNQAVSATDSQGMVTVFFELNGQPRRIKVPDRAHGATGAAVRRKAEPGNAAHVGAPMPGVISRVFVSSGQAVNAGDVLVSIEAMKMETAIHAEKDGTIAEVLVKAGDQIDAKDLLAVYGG

[2] = biological target: T2, Rhizobium etli pyruvate carboxylase (RePC) (Rhizobium etli, UniProt Q2K340, R472K); test: coupled spectrophotometric assay; type: biochemical
T2 sequence (Q2K340 1-1154 R472K): T1 sequence (Q2K340 1-1154 R427K) with K427R, R472K

N[C@@H](CC(=O)O)C(=O)O [L-aspartate] showed a Ki [1] of 4.5 ± 0.6 mM and a Ki [2] of 7 ± 1 mM.
